This is an account of results in patent publication US11453858B2, “Human plasma-like medium” (Whitehead Institute for Biomedical Research, priority 2016, dated 2022).

In one assay the test system is SW620 cells. The assay is described as follows: drug treatment assay, cell viability by Cell-Titer Glo. It is filed as cell-based, human. Particulars: removal of uric acid from HPLM+dIFS. As to the method:
SW620 cells were seeded at a density of 2000 cells/well and allowed to attach for 24 hr. 5-FU and doxorubicin were prepared in DMSO and dispensed using an HP D300 compound dispenser. Cell viability was assessed with Cell-Titer Glo at 4 days following treatment and luminescence was measured as described above.
(§1) Dose-response values were plotted in GraphPad Prism and fit using a One Site-Fit log IC50 equation.

In the next assay the test system is NOMO1 cells. The assay can be described thus: drug treatment assay, cell viability by Cell Titer-Glo. It is filed as cell-based, human. As to the method:
After 24 hr incubation, cells were treated with 5-FU (100 nM, 1 μM, 10 μM, 100 μM, or 1 mM) or doxorubicin (1.95 nM, 7.81 nM, 31.25 nM, 125 nM, or 500 nM). All wells, including untreated controls, contained 0.5% DMSO. Following addition of drugs, plates were gently shaken for 2 min. After 4 days of treatment, 200 μL from each well was transferred to a white 96-well plate (Greiner) and cell viability was assessed with Cell Titer-Glo (Promega). Luminescence was measured with a SpectraMax M5 Plate Reader (Molecular Devices) and normalized to an untreated control.
as §1
(In ATP-based viability assays light output follows the ATP content of the culture.)

SMILES strings stand for the structures.

Turning to `COc1cccc2c1C(=O)c1c(O)c3c(c(O)c1C2=O)C[C@@](O)(C(=O)CO)C[C@@H]3O[C@H]1C[C@H](N)[C@H](O)[C@H](C)O1` [doxorubicin], the doxorubicin sensitivity entry in the assay with SW620 cells is “did not influence doxorubicin sensitivity”; in the assay with NOMO1 cells (removal of uric acid from HPLM+dIFS) it was “without affecting doxorubicin sensitivity”. In addition, the potency of doxorubicin entry in the assay on NOMO1 cells (culture in HPLM+dIFS compared to RPMI+IFS and RPMI+dIFS) is recorded as “without affecting the potency of doxorubicin”.
